The results in this text go back to PubChem BioAssay (NCI).

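These data come from cells grown in 96-well plates and exposed to compound for 48 hours at five concentrations. GI50 = concentration required for 50% inhibition of growth. At the TGI there is no net growth.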

Test systems include RXF 393 renal; NCI-H460 lung; SK-OV-3 ovarian; U251 CNS; RPMI-8226 leukemia; HOP-92 NSCLC; NCI-H23 lung; SNB-75 CNS; HOP-62 NSCLC; MOLT-4 leukemia.
Holding throughout (experiment): NCI-60 cell line screen, 48 h

On to `S=c1nc(-c2cccnc2)[nH][nH]1`, for which the TGI in the assay on RXF 393 renal, in the assay on NCI-H460 lung, in the assay on SK-OV-3 ovarian, with U251 CNS, in the assay on RPMI-8226 leukemia and in the assay with HOP-92 NSCLC was greater than 100 µM in each case. The TGI in the assay with NCI-H23 lung, in the assay on SNB-75 CNS and in the assay with HOP-62 NSCLC was greater than 100 µM in each case.
For the compound `COc1cc2nc(-c3ccc(C(F)(F)F)cc3)cc(OCCCN3CCCCC3)c2cc1OC`, the GI50 is 1.09 µM with RXF 393 renal; 0.595 µM in the assay with NCI-H460 lung; 1.7 µM in the assay with MOLT-4 leukemia; 2.3 µM in the assay with SK-OV-3 ovarian; 1.1 µM in the assay with U251 CNS; 0.678 µM in the assay on HOP-92 NSCLC. Moreover, the figures for the GI50 with NCI-H23 lung, in the assay with SNB-75 CNS and in the assay on HOP-62 NSCLC were 1.91 µM, 1.96 µM and 0.947 µM, respectively. Moreover, the TGI in the assay with RXF 393 renal is 4.26 µM; with NCI-H460 lung, 11.9 µM; in the assay with MOLT-4 leukemia, 8.56 µM; in the assay on SK-OV-3 ovarian it was 23.3 µM; in the assay with U251 CNS it was 14.8 µM; in the assay with HOP-92 NSCLC it was 7.08 µM. Further, the TGI amounted to 11.1 µM with NCI-H23 lung, 6.86 µM in the assay with SNB-75 CNS and 13.6 µM in the assay on HOP-62 NSCLC.
On to `Cc1nn(-c2ccccc2)c(-c2ccccc2[N+](=O)[O-])c1CC#N`, for which the TGI with RXF 393 renal, with NCI-H460 lung, in the assay on MOLT-4 leukemia, in the assay with SK-OV-3 ovarian, with RPMI-8226 leukemia and in the assay on HOP-92 NSCLC was greater than 100 µM in each case. In addition, the TGI with NCI-H23 lung, in the assay on SNB-75 CNS and in the assay with HOP-62 NSCLC was greater than 100 µM each time.
As for `Cc1cc(=O)oc2cc(O)c(CN(C)CC(=O)O)cc12`, the TGI with RXF 393 renal, in the assay on NCI-H460 lung, in the assay with U251 CNS, in the assay with RPMI-8226 leukemia, in the assay with HOP-92 NSCLC and in the assay on NCI-H23 lung was greater than 100 µM throughout. The TGI with SNB-75 CNS is greater than 100 µM.
Take `COc1cc(Br)c(C=Nc2cccc3ccc(OS(=O)(=O)c4cccc([N+](=O)[O-])c4)cc23)cc1OC`: the TGI in the assay with RXF 393 renal is 43.5 µM; in the assay on NCI-H460 lung it was greater than 100 µM; in the assay on MOLT-4 leukemia it was greater than 100 µM; in the assay with SK-OV-3 ovarian, greater than 100 µM; with U251 CNS, greater than 100 µM; in the assay on RPMI-8226 leukemia, greater than 100 µM. Besides, the TGI is 35.3 µM in the assay on HOP-92 NSCLC, 44.8 µM with NCI-H23 lung and greater than 100 µM in the assay with HOP-62 NSCLC.
In the case of `OCC1OC(n2cnc3c(/C=C(/O)c4ccccc4)ncnc32)C(O)C1O` (stereo not given), the TGI was greater than 100 µM in the assay with RXF 393 renal; 7.56 µM in the assay on NCI-H460 lung; greater than 100 µM in the assay on MOLT-4 leukemia; greater than 100 µM in the assay on U251 CNS; greater than 100 µM in the assay on RPMI-8226 leukemia; greater than 100 µM in the assay with HOP-92 NSCLC. Besides, the values for the TGI in the assay with NCI-H23 lung, in the assay on SNB-75 CNS and in the assay with HOP-62 NSCLC were greater than 100 µM, greater than 25.1 µM and greater than 100 µM, respectively.
On to `O=C(OC[C@H]1O[C@@H](OC(=O)c2cc(O)c(O)c(O)c2)[C@H](OC(=O)c2cc(O)c(O)c(O)c2)[C@@H](OC(=O)c2cc(O)c(O)c(O)c2)[C@@H]1OC(=O)c1cc(O)c(O)c(O)c1)c1cc(O)c(O)c(O)c1`, for which the TGI is 31.2 µM in the assay on RXF 393 renal; 24.8 µM with NCI-H460 lung; 86.5 µM in the assay with MOLT-4 leukemia; greater than 100 µM in the assay with SK-OV-3 ovarian; 54.3 µM in the assay with U251 CNS; greater than 100 µM in the assay with RPMI-8226 leukemia. Further, the TGI is 37.4 µM in the assay with HOP-92 NSCLC, 7.71 µM in the assay on NCI-H23 lung and 14.4 µM in the assay with HOP-62 NSCLC.
Turning to `CCOC(=O)[C@H]1Nc2ccc(OC)cc2C2c3ccccc3CC21` (stereo not given in full), the TGI with RXF 393 renal, in the assay on NCI-H460 lung, with MOLT-4 leukemia, with U251 CNS, in the assay with RPMI-8226 leukemia and in the assay with NCI-H23 lung was greater than 100 µM each time. The TGI with SNB-75 CNS and in the assay on HOP-62 NSCLC was greater than 100 µM throughout.
Turning to `BrC1(Br)C2/C=C\CCCCC21` (stereo not given), the TGI in the assay with RXF 393 renal, in the assay on NCI-H460 lung, in the assay on MOLT-4 leukemia, with U251 CNS, in the assay on HOP-92 NSCLC and in the assay on NCI-H23 lung was greater than 100 µM each time. Further, the TGI in the assay on HOP-62 NSCLC is greater than 100 µM.
Regarding `COc1ccc(Cn2c(Cl)c(/C=C3/C(=O)Nc4ccccc43)c3cc(OC)c(C)cc32)cc1`, the GI50 in the assay with RXF 393 renal was 4.06 µM; with NCI-H460 lung, 5.03 µM; in the assay on MOLT-4 leukemia it was 5.55 µM; with SK-OV-3 ovarian, 3.56 µM; in the assay on U251 CNS, 6.05 µM; in the assay with RPMI-8226 leukemia it was 4.26 µM. The GI50 was 53.8 µM with HOP-92 NSCLC, 4.78 µM with NCI-H23 lung and 5.67 µM in the assay on HOP-62 NSCLC. For the same compound, the TGI with RXF 393 renal was greater than 100 µM; in the assay on NCI-H460 lung, greater than 100 µM; in the assay with MOLT-4 leukemia it was greater than 100 µM; in the assay with SK-OV-3 ovarian, greater than 100 µM; in the assay on U251 CNS it was greater than 100 µM; in the assay on RPMI-8226 leukemia it was 79 µM. The TGI with HOP-92 NSCLC, with NCI-H23 lung and in the assay on HOP-62 NSCLC was greater than 100 µM in each case.
Regarding `OC12CC/C(=N/OCc3ccccc3)CC1c1ccccc12` (stereo not given), the TGI with RXF 393 renal, in the assay with NCI-H460 lung, with MOLT-4 leukemia, with SK-OV-3 ovarian, in the assay with U251 CNS and in the assay with RPMI-8226 leukemia was greater than 100 µM throughout. Further, the TGI in the assay with NCI-H23 lung, in the assay with SNB-75 CNS and in the assay with HOP-62 NSCLC was greater than 100 µM in each case.
Regarding `Cc1cc(N/N=C/c2nc(-c3ccc(Cl)cc3)oc2C)c2cc(Cl)ccc2n1`, the GI50 is 3.57 µM in the assay on RXF 393 renal; 2.34 µM in the assay with MOLT-4 leukemia; 3.54 µM in the assay on SK-OV-3 ovarian; 1.78 µM with U251 CNS; 2.07 µM with RPMI-8226 leukemia; 3.53 µM in the assay on HOP-92 NSCLC. The GI50 in the assay with NCI-H23 lung was 5.34 µM; with SNB-75 CNS, 1.68 µM; in the assay with HOP-62 NSCLC, 1.92 µM. In addition, the TGI in the assay on RXF 393 renal was determined as 15.8 µM; in the assay with MOLT-4 leukemia it was 9.11 µM; with SK-OV-3 ovarian, 12.8 µM; in the assay with U251 CNS it was 3.37 µM; with RPMI-8226 leukemia, 5.21 µM; in the assay on HOP-92 NSCLC it was 16.6 µM. The TGI in the assay on NCI-H23 lung stood at 19.1 µM; in the assay with SNB-75 CNS it was 3.68 µM; in the assay on HOP-62 NSCLC, 3.76 µM.
